Data published in PMC11946908, “Plasmodium blood stage development requires the chromatin remodeller Snf2L” (Nature, 2025).

Legend:
Type in all cases: biochemical
PfSnf2L [1] = target: T1, PfSnf2L (Plasmodium falciparum, UniProt Q8IIW0); test: ADP biosensor (TMR-ParM) ATPase assay, single dose response; conditions: 0.4 µM enzyme, 125 µM ATP, plasmid DNA, 5 µM H4 peptide, 1.5 mM MgCl2, pH 8.6, 28 °C; allosteric
T1 construct: gene PF3D7_1104200; amino acids 250-1426, C-terminal 10xHis tag, baculovirus, Sf21 insect cells
T1 sequence (Q8IIW0 250-1426): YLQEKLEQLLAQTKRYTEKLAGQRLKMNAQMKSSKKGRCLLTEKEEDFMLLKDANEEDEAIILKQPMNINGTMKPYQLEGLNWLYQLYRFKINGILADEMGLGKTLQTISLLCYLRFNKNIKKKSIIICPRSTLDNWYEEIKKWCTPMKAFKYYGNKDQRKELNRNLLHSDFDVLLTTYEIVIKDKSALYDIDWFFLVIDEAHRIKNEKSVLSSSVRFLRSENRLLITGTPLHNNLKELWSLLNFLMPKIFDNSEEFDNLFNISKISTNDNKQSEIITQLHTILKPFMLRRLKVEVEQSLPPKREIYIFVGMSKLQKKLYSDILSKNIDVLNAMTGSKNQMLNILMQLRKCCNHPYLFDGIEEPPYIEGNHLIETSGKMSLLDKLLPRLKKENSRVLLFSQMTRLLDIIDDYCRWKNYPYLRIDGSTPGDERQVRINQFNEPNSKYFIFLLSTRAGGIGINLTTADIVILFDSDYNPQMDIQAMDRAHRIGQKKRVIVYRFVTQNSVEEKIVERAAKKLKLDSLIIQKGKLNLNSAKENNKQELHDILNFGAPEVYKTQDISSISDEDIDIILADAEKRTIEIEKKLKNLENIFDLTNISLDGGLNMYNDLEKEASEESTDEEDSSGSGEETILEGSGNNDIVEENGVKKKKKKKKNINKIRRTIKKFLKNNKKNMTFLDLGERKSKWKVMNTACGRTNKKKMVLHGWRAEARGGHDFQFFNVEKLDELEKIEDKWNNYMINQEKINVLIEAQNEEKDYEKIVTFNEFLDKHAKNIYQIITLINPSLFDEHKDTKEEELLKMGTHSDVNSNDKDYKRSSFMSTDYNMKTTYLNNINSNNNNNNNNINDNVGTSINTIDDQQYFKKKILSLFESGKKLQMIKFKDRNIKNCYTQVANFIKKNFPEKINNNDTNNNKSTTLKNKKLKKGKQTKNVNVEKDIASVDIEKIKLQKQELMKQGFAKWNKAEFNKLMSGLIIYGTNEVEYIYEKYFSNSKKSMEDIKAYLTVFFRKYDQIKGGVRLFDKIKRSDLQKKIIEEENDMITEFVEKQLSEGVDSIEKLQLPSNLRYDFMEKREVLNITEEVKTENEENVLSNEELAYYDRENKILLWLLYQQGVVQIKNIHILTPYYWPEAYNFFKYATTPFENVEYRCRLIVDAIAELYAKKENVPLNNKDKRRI

HsSNF2L = target: T2, HsSNF2L (Homo sapiens, UniProt P28370); test: […]-gamma-ATP hydrolysis, thin-layer chromatography; conditions: 500 µM ATP, 1.5 mM MgCl2, pH 7.6, 30 °C, with or without mononucleosomes
T2 construct: gene SMARCA1; 6xHis tag, baculovirus, Sf21 insect cells
T2 sequence (P28370 whole entry): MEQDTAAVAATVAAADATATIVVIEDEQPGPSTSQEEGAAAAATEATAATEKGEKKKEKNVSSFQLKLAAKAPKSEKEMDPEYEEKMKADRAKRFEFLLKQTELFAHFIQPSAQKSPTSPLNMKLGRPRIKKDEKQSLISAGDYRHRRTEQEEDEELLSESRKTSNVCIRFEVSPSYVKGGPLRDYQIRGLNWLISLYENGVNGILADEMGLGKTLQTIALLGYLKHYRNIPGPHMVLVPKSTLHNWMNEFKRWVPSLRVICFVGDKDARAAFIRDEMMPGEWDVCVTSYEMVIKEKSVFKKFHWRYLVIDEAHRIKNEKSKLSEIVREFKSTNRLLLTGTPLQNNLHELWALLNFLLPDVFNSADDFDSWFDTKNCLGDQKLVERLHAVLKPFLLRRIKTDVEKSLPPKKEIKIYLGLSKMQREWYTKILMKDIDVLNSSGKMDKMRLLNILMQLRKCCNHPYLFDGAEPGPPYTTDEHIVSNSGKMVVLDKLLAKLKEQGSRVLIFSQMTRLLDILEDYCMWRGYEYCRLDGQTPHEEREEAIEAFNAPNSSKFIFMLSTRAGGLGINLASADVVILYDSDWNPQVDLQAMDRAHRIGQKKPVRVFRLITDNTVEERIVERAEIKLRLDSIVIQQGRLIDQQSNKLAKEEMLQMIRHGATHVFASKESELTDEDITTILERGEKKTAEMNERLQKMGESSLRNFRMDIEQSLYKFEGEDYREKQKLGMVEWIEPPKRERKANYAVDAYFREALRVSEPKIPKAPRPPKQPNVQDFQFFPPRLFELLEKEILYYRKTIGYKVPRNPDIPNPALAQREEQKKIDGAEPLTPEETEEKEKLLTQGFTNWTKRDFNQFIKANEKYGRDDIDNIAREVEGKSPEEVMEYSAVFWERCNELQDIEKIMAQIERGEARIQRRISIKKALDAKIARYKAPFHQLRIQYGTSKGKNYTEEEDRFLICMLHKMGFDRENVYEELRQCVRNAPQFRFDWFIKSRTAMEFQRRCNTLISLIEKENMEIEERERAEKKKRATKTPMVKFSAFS

PfSnf2L [2] = target: T1, PfSnf2L; test: as above; conditions: 500 µM ATP, 1.5 mM MgCl2, pH 7.6, 30 °C, with or without mononucleosomes

Structure (SMILES) | ADP biosensor (TMR-ParM) ATPase assay, single dose response (PfSnf2L [1]) | 32P-gamma-ATP hydrolysis, thin-layer chromatography (HsSNF2L) | 32P-gamma-ATP hydrolysis, thin-layer chromatography (PfSnf2L [2])
CCCCCCCCCCCCCCCC[n+]1ccn(Cc2ccccc2)c1C [NH125] | ATP hydrolysis kinetic of PfSnf2L in presence of NH125 in varying concentrations | – | –
Nc1ncnc2c1ncn2[C@@H]1O[C@H](COP(=O)(O)OP(=O)(O)OP(=O)(O)O)[C@@H](O)[C@H]1O [ATP] | – | The non-stimulated or nucleosome-stimulated ATP hydrolysis rate of PfSnf2L/HsSNF2L | The non-stimulated or nucleosome-stimulated ATP hydrolysis rate of PfSnf2L/HsSNF2L
